These results are taken from patent US7683061B2, “Triazine dimers for the treatment of autoimmune diseases” (ProMetic BioSciences Inc., priority 2003, dated 2010).

For the first assay, the system named is TNFα-induced apoptosis, WEHI-13VAR cells. Kind of assay: TNFα induced apoptosis in WEHI-13VAR cells (MTT). The class given is cell-based, murine. Conditions: Mus musculus; 1 × 10^−5M. On the procedure: Effect of compounds on TNFα-induced apoptosis was measured by a standard biological assay using WEHI-13VAR cells. These cells undergo apoptosis when they are incubated in the presence of TNFα and actinomycin D. 2×10^4 WEHI-13VAR cells were incubated in RPMI supplemented with 1% sodium pyruvate and 10% FBS, overnight at 37° C. for cell adherence. The cells were then cultured in the presence of 1 μg/mL of actinomycin D (to inhibit protein synthesis) and 0.04 nM TNFα with or without compounds at 37° C. After 16-24 h, 50 μL of a solution of 2 mg/mL of MTT was added to each well and the plate was then incubated for 4 h at 37° C. Only viable cells metabolize MTT to form formazan salt, which is detectable by the measurement of absorbance at 570 nm. After the incubation, the plate was inverted to remove medium and dead cells. 150 μL DMSO was added to each well to stop the reaction and solubilize the formazan salt. Optical density was read on a EL 800, universal Microplate reader (Bio-Tek). A decrease in the optical density is direct evidence of cell apoptosis induced by TNFα. Compounds were also compared to the activity of an anti-TNFα neutralizing antibody.
Turning to `COC(=O)c1ccccc1Nc1nc(NCCNc2nc(NCCc3ccc(O)cc3)nc(Nc3ccccc3C(=O)OC)n2)nc(NCCc2ccc(O)cc2)n1` [Compound 2], the inhibition at 10 µM came out at 43.7%.
Still for that read-out and setting: the same measure for `OCCNc1nc(NCC2CCN(c3nc(NCCO)nc(Nc4ccccc4)n3)CC2)nc(Nc2ccccc2)n1` [Compound 26]: 27.3%; for `Nc1cccc(Nc2nc(NCCO)nc(Nc3ccc(CNc4nc(Nc5cccc(N)c5)nc(Nc5cccc(N)c5)n4)cc3)n2)c1` [Compound 42]: -1.7%.
Same read-out and setting: the same measure for `Nc1cccc(CNc2nc(Nc3ccc(CNc4nc(N)nc(Nc5cccc(N)c5)n4)cc3)nc(Nc3cccc(N)c3)n2)c1` [Compound 45]: 2.9%.

The same assay, now with this note: Mus musculus; 2 × 10^−5M.
Consider `COC(=O)c1ccccc1Nc1nc(NCCNc2nc(NCCc3ccc(O)cc3)nc(Nc3ccccc3C(=O)OC)n2)nc(NCCc2ccc(O)cc2)n1` [Compound 2], for which the inhibition at 20 µM turned out to be 48.4%.
Still for that read-out and setting: as for `OCCNc1nc(NCC2CCN(c3nc(NCCO)nc(Nc4ccccc4)n3)CC2)nc(Nc2ccccc2)n1` [Compound 26], the figure is 38%.
Same read-out and setting: as for `Nc1cccc(Nc2nc(NCCO)nc(Nc3ccc(CNc4nc(Nc5cccc(N)c5)nc(Nc5cccc(N)c5)n4)cc3)n2)c1` [Compound 42], the figure is 0.5%; as for `Nc1cccc(CNc2nc(Nc3ccc(CNc4nc(N)nc(Nc5cccc(N)c5)n4)cc3)nc(Nc3cccc(N)c3)n2)c1` [Compound 45], 4.1%.

The assay is the same for the next values; noted with them: Mus musculus; 4 × 10^−5M.
For the compound `COC(=O)c1ccccc1Nc1nc(NCCNc2nc(NCCc3ccc(O)cc3)nc(Nc3ccccc3C(=O)OC)n2)nc(NCCc2ccc(O)cc2)n1` [Compound 2], the inhibition at 40 µM worked out at 48.3%.
On the same count and under the same terms, the same measure for `OCCNc1nc(NCC2CCN(c3nc(NCCO)nc(Nc4ccccc4)n3)CC2)nc(Nc2ccccc2)n1` [Compound 26]: -11.5%.
Turning to `Nc1cccc(Nc2nc(NCCO)nc(Nc3ccc(CNc4nc(Nc5cccc(N)c5)nc(Nc5cccc(N)c5)n4)cc3)n2)c1` [Compound 42], the inhibition at 40 µM came out at 30.4%.
Still for that read-out and setting: as for `Nc1cccc(CNc2nc(Nc3ccc(CNc4nc(N)nc(Nc5cccc(N)c5)n4)cc3)nc(Nc3cccc(N)c3)n2)c1` [Compound 45], the figure is 32.9%.

The same assay, now with this note: Mus musculus; 5 × 10^−6M.
Turning to `COC(=O)c1ccccc1Nc1nc(NCCNc2nc(NCCc3ccc(O)cc3)nc(Nc3ccccc3C(=O)OC)n2)nc(NCCc2ccc(O)cc2)n1` [Compound 2], the inhibition at 5 µM was 37.3%.
On to `OCCNc1nc(NCC2CCN(c3nc(NCCO)nc(Nc4ccccc4)n3)CC2)nc(Nc2ccccc2)n1` [Compound 26], for which the inhibition at 5 µM was determined as 9.7%.
As to `Nc1cccc(Nc2nc(NCCO)nc(Nc3ccc(CNc4nc(Nc5cccc(N)c5)nc(Nc5cccc(N)c5)n4)cc3)n2)c1` [Compound 42], the inhibition at 5 µM is -3.1%.
As for `Nc1cccc(CNc2nc(Nc3ccc(CNc4nc(N)nc(Nc5cccc(N)c5)n4)cc3)nc(Nc3cccc(N)c3)n2)c1` [Compound 45], the inhibition at 5 µM was -0.3%.

The target in the next assay is T1, Fc portion of human IgG (binding of protein A to human IgG).
T1 construct: fused on or other part: Horseradish peroxidase chemically conjugated to the IgG (HRP-IgG)
Kind of assay: Competitive protein A binding ELISA. As to conditions: Table 1; PBS-20% DMSO; read-out: IC50 (μM): Assay in PBS-20% DMSO. On the procedure: As described above, this assay evaluates the ability of the exemplified compounds to mimic protein A. Such compounds can bind to the Fc portion of human IgG as ascertained by the inhibition of binding of protein A to human IgG. The competitive protein A binding ELISA assay was performed on a 96-well plate Maxisorp surface to enhance the binding of protein A to the bottom of the plate. The wells were coated with 100 μL of protein A (0.8 μg) and incubated overnight at 4° C. After incubation, unbound protein A was removed by three washes with phosphate buffer saline (PBS). The plate was then incubated with 100 μL/well of a 2% solution of bovine serum albumin (BSA) for 1 h at 37° C. to block non specific protein binding. After incubation, the plate was washed to times with PBS. 50 μL of compound or protein A, diluted in PBS or PBS-20% DMSO at appropriate concentration, were added to the wells followed by addition of 50 μL of peroxidase-conjugated human IgG (HRP-IgG). After 1 h incubation at 37° C., the plate was washed free times with PBS to remove unbound HRP-IgG. Bound HRP-IgG was detected by incubation with 100 μL of 2,2′-Azino-di[3-ethylbenzothiazoline sulfonate]diammonium salt crystals (ABTS) solution for 20 min in the dark at room temperature. The plate was then read at 405 nm on a EL 800, universal Microplate reader (Bio-Tek). Data was analyzed in Microsoft Excel and the concentration of compound which inhibits 50% binding of protein A (IC50) was calculated using Prism software.
Table 1 represents the IC50 of compounds tested in the competitive protein A binding ELISA assay, which consists of a side-by-side analysis in PBS and PBS-20% DMSO. DMSO was used to increase the solubility of some of the compounds.
Turning to `Nc1ccc(CNc2nc(NCCNc3nc(NCc4ccc(N)cc4)nc(Nc4ccccc4)n3)nc(Nc3ccccc3)n2)cc1` [Compound 6], the half-maximal inhibitory concentration (IC50) stood at 0.4 µM.
For `COC(=O)[C@H](Cc1ccc(O)cc1)Nc1nc(NCCNc2nc(NCCc3cc4ccccc4[nH]3)nc(N[C@@H](Cc3ccc(O)cc3)C(=O)OC)n2)nc(NCCc2cc3ccccc3[nH]2)n1` [Compound 8], the concentration for half-maximal inhibition (IC50) came to 28 µM.
Still for that read-out and setting: as for `O=C(O)c1ccccc1Nc1nc(NCCNc2nc(NCCc3ccc(O)cc3)nc(Nc3ccccc3C(=O)O)n2)nc(NCCc2ccc(O)cc2)n1` [Compound 9], the figure is 50 µM; as for `O=C(O)[C@H](Nc1nc(NCCNc2nc(NCCc3ccc(O)cc3)nc(N[C@@H](C(=O)O)c3ccccc3)n2)nc(NCCc2ccc(O)cc2)n1)c1ccccc1` [Compound 10], 85 µM.
In the case of `Oc1ccc(CCNc2nc(Nc3ccccc3)nc(Nc3ccc(CNc4nc(NCCc5cnc[nH]5)nc(Nc5ccccc5)n4)cc3)n2)cc1` [Compound 27], the IC50 was found to be 28 µM.
On the same count and under the same terms, as for `Nc1ccc(CCNc2nc(Nc3cccc(N)c3)nc(N3CCN(c4nc(NCCc5ccc(N)cc5)nc(Nc5cccc(N)c5)n4)CC3)n2)cc1` [Compound 29], the figure is 0.003 µM; as for `Nc1ccc(CCNc2nc(NCC3CCN(c4nc(NCCc5ccc(N)cc5)nc(Nc5cccc(N)c5)n4)CC3)nc(Nc3cccc(N)c3)n2)cc1` [Compound 30], 0.03 µM.
The same measure, in the same setting: as for `Nc1ccc(CCNc2nc(NCCCCCCNc3nc(NCCc4ccc(N)cc4)nc(Nc4cccc(N)c4)n3)nc(Nc3cccc(N)c3)n2)cc1` [Compound 31], the figure is 0.12 µM; as for `Nc1ccc(CCNc2nc(NCC3CCN(c4nc(NCCc5ccc(N)cc5)nc(Nc5ccccc5)n4)CC3)nc(Nc3ccccc3)n2)cc1` [Compound 32], 2 µM.
On the same count and under the same terms, as for `Cc1ccc(Nc2nc(NCCc3ccc(N)cc3)nc(Nc3ccccc3)n2)cc1CNc1nc(NCCO)nc(Nc2ccccc2)n1` [Compound 34], the figure is 1 µM.
As for `Nc1ccc(CCNc2nc(Nc3ccccc3)nc(Nc3cccc(CNc4nc(NCCO)nc(Nc5ccccc5)n4)c3)n2)cc1` [Compound 35], the IC50 worked out at 1 µM.
Consider `Nc1ccc(CCNc2nc(Nc3ccccc3)nc(N3CCN(c4nc(NCCc5ccc(N)cc5)nc(Nc5ccccc5)n4)CC3)n2)cc1` [Compound 36], for which the concentration for half-maximal inhibition (IC50) is 16 µM.
As to `Nc1cccc(Nc2nc(NCCO)nc(Nc3ccc(CNc4nc(Nc5cccc(N)c5)nc(Nc5cccc(N)c5)n4)cc3)n2)c1` [Compound 42], the IC50 was found to be 0.05 µM.
Regarding `Nc1cccc(CNc2nc(Nc3ccc(CNc4nc(N)nc(Nc5cccc(N)c5)n4)cc3)nc(Nc3cccc(N)c3)n2)c1` [Compound 45], the half-inhibitory concentration (IC50) amounted to 0.08 µM.

The same assay, now with this note: Table 1; PBS; read-out: IC50 (μM): Assay in PBS.
As to `Nc1ccc(CNc2nc(NCCNc3nc(NCc4ccc(N)cc4)nc(Nc4ccccc4)n3)nc(Nc3ccccc3)n2)cc1` [Compound 6], the 50% inhibitory concentration (IC50) is 2.4 µM.
With `O=C(O)[C@H](Nc1nc(NCCNc2nc(NCCc3ccc(O)cc3)nc(N[C@@H](C(=O)O)c3ccccc3)n2)nc(NCCc2ccc(O)cc2)n1)c1ccccc1` [Compound 10], the IC50 came to 69 µM.
With `Nc1ccc(CCNc2nc(Nc3cccc(N)c3)nc(N3CCN(c4nc(NCCc5ccc(N)cc5)nc(Nc5cccc(N)c5)n4)CC3)n2)cc1` [Compound 29], the IC50 was determined as 0.2 µM.
On the same count and under the same terms, as for `Nc1ccc(CCNc2nc(NCC3CCN(c4nc(NCCc5ccc(N)cc5)nc(Nc5cccc(N)c5)n4)CC3)nc(Nc3cccc(N)c3)n2)cc1` [Compound 30], the figure is 0.4 µM.
As to `Nc1ccc(CCNc2nc(NCCCCCCNc3nc(NCCc4ccc(N)cc4)nc(Nc4cccc(N)c4)n3)nc(Nc3cccc(N)c3)n2)cc1` [Compound 31], the IC50 was found to be 0.99 µM.
The same measure, in the same setting: the same measure for `Nc1ccc(CCNc2nc(NCC3CCN(c4nc(NCCc5ccc(N)cc5)nc(Nc5ccccc5)n4)CC3)nc(Nc3ccccc3)n2)cc1` [Compound 32]: 33 µM.
Take `Cc1ccc(Nc2nc(NCCc3ccc(N)cc3)nc(Nc3ccccc3)n2)cc1CNc1nc(NCCO)nc(Nc2ccccc2)n1` [Compound 34]: the half-inhibitory concentration (IC50) came to 23 µM.
On to `Nc1ccc(CCNc2nc(Nc3ccccc3)nc(Nc3cccc(CNc4nc(NCCO)nc(Nc5ccccc5)n4)c3)n2)cc1` [Compound 35], for which the half-maximal inhibitory concentration (IC50) was found to be 23 µM.
Still for that read-out and setting: as for `Nc1cccc(Nc2nc(NCCO)nc(Nc3ccc(CNc4nc(Nc5cccc(N)c5)nc(Nc5cccc(N)c5)n4)cc3)n2)c1` [Compound 42], the figure is 0.05 µM.
Same read-out and setting: the same measure for `Nc1cccc(CNc2nc(Nc3ccc(CNc4nc(N)nc(Nc5cccc(N)c5)n4)cc3)nc(Nc3cccc(N)c3)n2)c1` [Compound 45]: 0.1 µM.

The assay is the same for the next values; noted with them: Table 2; PBS-20% DMSO; n = 5 or 6; read-out: IC50 (n = 5 or 6) PBS-20% DMSO.
Take `Nc1ccc(CCNc2nc(Nc3cccc(N)c3)nc(N3CCN(c4nc(NCCc5ccc(N)cc5)nc(Nc5cccc(N)c5)n4)CC3)n2)cc1` [Compound 29]: the IC50 is 0.0029 µM.
On the same count and under the same terms, as for `Nc1ccc(CCNc2nc(NCC3CCN(c4nc(NCCc5ccc(N)cc5)nc(Nc5cccc(N)c5)n4)CC3)nc(Nc3cccc(N)c3)n2)cc1` [Compound 30], the figure is 0.033 µM.

Staying with this assay, now noted: Table 2; PBS; n = 5 or 6; read-out: IC50 (n = 5 or 6) PBS.
Turning to `Nc1ccc(CCNc2nc(Nc3cccc(N)c3)nc(N3CCN(c4nc(NCCc5ccc(N)cc5)nc(Nc5cccc(N)c5)n4)CC3)n2)cc1` [Compound 29], the IC50 worked out at 0.225 µM.
On the same count and under the same terms, the same measure for `Nc1ccc(CCNc2nc(NCC3CCN(c4nc(NCCc5ccc(N)cc5)nc(Nc5cccc(N)c5)n4)CC3)nc(Nc3cccc(N)c3)n2)cc1` [Compound 30]: 0.426 µM.
